# Values joined by “and” are separate entries in the source; they are usually repeats but may differ in a detail not shown here. Identical values can stand only once. Like-named read-outs stand apart in the source and are kept apart here.
# Legend:
# Assay type in all cases: cell-based
# [1] = test system: Escherichia coli ATCC 25922; experiment: MIC (microdilution) against E. coli; conditions: for MIC: Escherichia coli; for MIC E. coli: Table ST1
# Experimental: (§1) Staphylococcus aureus str. Newman, Enterococcus faecalis vanA (strain E0155), Enterococcus faecium vanA (strain E1654), Escherichia coli ATCC 25922, Escherichia coli D21f2 with a truncated LPS barrier, Escherichia coli JW5503 (ΔtolC) ([49]), Pseudomonas aeruginosa ATCC 27853, and Pasteurella haemolytica ATCC 29701 were grown in Mueller-Hinton Broth (MHB) (Oxoid, Basingstoke, UK) and incubated at 37°C.
# (§2) The minimal inhibitory concentration was determined using the microdilution method following the guidelines of the European Committee on Antimicrobial Susceptibility Testing ([50]). Briefly, a series of twofold dilutions in MHB of each compound were made in a 96-well plate, with final concentrations ranging from 50 to 0.39 µg/mL in 100 µL final volume per well. A hundred microliters of 1:100 dilution of an overnight culture of the correspondent bacteria in MHB was added to each well. Plates were incubated for 18 hours at 37°C. MIC was recorded as the lowest concentration where no growth was detected as measured by optical density at 600 nm (OD600) using Spectramax M5 (Molecular Devices LLC, San Jose, CA, USA). […] Wells containing bacteria with or without 1% DMSO and medium alone were included as controls in every plate.
# [2] = test system: Escherichia coli D21f2 with a truncated LPS barrier; experiment: MIC (microdilution) against E. coli D21f2
# Excerpt: We also tested the inhibitory activity of compounds in two different E. coli mutants: (i) E. coli JW5503 that lacks TolC efflux pumps and (ii) E. coli D21f2 that has a defective LPS inner core increasing permeability of the outer membrane. E. coli D21f2 has a slightly higher susceptibility to DPP compounds than E. coli ATCC25922.
# as §1, §2
# in vitro = conditions: human
# Experimental: (§3) HEK293 cells and the human hepatocellular carcinoma cells (HepG2) were routinely cultured in 75-cm^2 culture flasks (Corning Incorporated) on high-glucose Dulbecco’s modified Eagle medium (DMEM) containing glutaMax and phenol red (Gibco) supplemented with 1% penicillin/streptomycin (Gibco) and 10% fetal bovine serum (FBS) (Gibco). Cells were maintained at 37°C and 5% CO2.
# (§4) Cytotoxicity assays with HEK293 and HepG2 cells were performed in 96-well plates seeded with 5 × 10^4 cells/well and incubated for 24 hours to reach 80%–90% confluency. Exterior wells were filled with only medium to prevent evaporation. Culture medium was removed from the cells, and 100 µL of exposure medium [high-glucose DMEM without phenol red (Gibco)] was added to avoid a potential interaction between FBS components or antibiotics and tested compounds. A twofold dilution series of compounds in exposure medium (range 100–3.2 μg/mL) was made in a separate 96-well plate, and 100 µL of each of these dilutions was added to the assay plates for 24 hours at 37°C in the presence of 5% CO2. Control wells contained cells with DMEM, DMEM + 1% DMSO (vehicle control), or DMEM + 20% DMSO. Wells without cells were also included as negative control. After exposure, the medium was replaced with 100 µL 10% Alamar Blue (Invitrogen) in exposure medium. After 45 min incubation at 37°C and 5% CO2, fluorescence was measured on a Spectramax M5 plate reader at λex = 541 nm, λem = 590 nm. Cell viability compared with the vehicle control was calculated, and inhibition curves for each compound were fitted (non-linear curve fit, four variables, bottom constrained = 0) in Prism 9 (GraphPad Software, San Diego, USA).
# HEK293 cells = experiment: in vitro; conditions: for Selectivity Index: LC50/MIC (HEK293 / S. aureus); for LC20: human, 24 h
# Experimental: as §3, §4
# [3] = test system: Pasteurella haemolytica ATCC 29701; experiment: MIC (microdilution) against P. haemolytica; conditions: for MIC: Mannheimia haemolytica
# Experimental: as §1, §2
# [4] = test system: Staphylococcus aureus str. Newman; experiment: Minimal inhibitory concentration (microdilution) against S. aureus; conditions: for MIC S. aureus: Table ST3
# Experimental: as §1, §2
# [5] = ATCC25922, read-out: MIC E. coli
# [6] = ATCC29701, read-out: MIC P. haemolytica, Table 1
# [7] = ATCC29701, read-out: MIC P. haemolytica, Table ST1
# [8] = Staphylococcus aureus, NEWMAN, Fig 2
# [9] = Staphylococcus aureus, NEWMAN, Fig 2, value in parentheses
# [10] = Table ST3, value in parentheses
# [11] = ATCC25922, Table 1, read-out: MIC E. coli
SMILES,"MIC [1, 5] [µg/mL]",MIC E. coli [1] [µg/mL],MIC ([2]; read-out: MIC E coli D21f2) [µg/mL],MIC ([2]; read-out: MIC E. coli D21f2) [µg/mL],CC50 at 24 h (in vitro),Selectivity Index (HEK293 cells),"MIC [3, 6] [µg/mL]","MIC [3, 7] [µg/mL]","MIC [4, 8] [µg/mL]","MIC [4, 9] [µM]",MIC S. aureus [4] [µg/mL],"MIC [4, 10] [µM]","MIC [1, 11] [µg/mL]",LC20 (HEK293 cells) [µg/mL],"MIC ([3]; ATCC29701, Table 1, read-out: MIC P. haemolytica) [µg/mL]",MIC P. haemolytica ([3]; Table ST1) [µg/mL]
COc1ccc(-c2c(C(F)(F)F)n[nH]c2-c2ccc(O)cc2O)cc1 [DPP-12],> 250,>250,> 50,> 250,31.7 µg/mL and 90.7 µM,2.54,50,62.5,12.5,35.7,12.50,35.71,,,,
COc1ccc(-c2[nH]nc(C(F)(F)F)c2-c2ccc(Cl)cc2)c(O)c1 [DPP-6],,>250,25,25,14.3 µg/mL and 38.6 µM,4.58,12.5,12.5,3.12,8.43,3.12,8.43,> 250,6,,
CCOc1ccc(-c2[nH]nc(C(F)(F)F)c2-c2ccc(Cl)cc2)c(O)c1 [DPP-7],,>250,25,25,10.8 µg/mL and 28.5 µM,3.47,25,25,3.12,8.21,3.12,8.21,> 250,,,
Oc1ccc(-c2n[nH]c(C(F)(F)F)c2-c2ccc(Cl)cc2)c(O)c1 [DPP-5],,50,50,50,12.9 µg/mL and 36.3 µM,4.13,,,3.12,8.79,3.12,8.79,50,5,12.5,12.5
COc1ccc(-c2c(C(F)(F)F)n[nH]c2-c2ccc(OC)cc2O)cc1 [DPP-13],> 250,>250,> 50,> 250,29.9 µg/mL and 82.1 µM,2.39,> 250,> 250,12.5,34.3,12.50,34.34,,,,
COc1ccc(-c2[nH]nc(C(F)(F)F)c2-c2ccccc2)c(O)c1 [DPP-2],,>250,50,50,7.34 µg/mL and 21.9 µM,0.60,50,50,12.5,37.3,12.50,37.3,> 250,,,

# Source: article PMC11302729, “Repurposing Hsp90 inhibitors as antimicrobials targeting two-component systems identifies compounds leading to loss of bacterial membrane integrity” (Microbiology Spectrum, 2024)
